Results reported in patent US9023986B2, “Glucose-dependent insulinotropic peptide analogs” (Hoffmann-La Roche Inc., priority 2010, dated 2015).

Molecular target: T1, human GIPR (Homo sapiens, UniProt P48546)
T1 construct: host or cells: CHO-K1
T1 sequence (P48546 22-466): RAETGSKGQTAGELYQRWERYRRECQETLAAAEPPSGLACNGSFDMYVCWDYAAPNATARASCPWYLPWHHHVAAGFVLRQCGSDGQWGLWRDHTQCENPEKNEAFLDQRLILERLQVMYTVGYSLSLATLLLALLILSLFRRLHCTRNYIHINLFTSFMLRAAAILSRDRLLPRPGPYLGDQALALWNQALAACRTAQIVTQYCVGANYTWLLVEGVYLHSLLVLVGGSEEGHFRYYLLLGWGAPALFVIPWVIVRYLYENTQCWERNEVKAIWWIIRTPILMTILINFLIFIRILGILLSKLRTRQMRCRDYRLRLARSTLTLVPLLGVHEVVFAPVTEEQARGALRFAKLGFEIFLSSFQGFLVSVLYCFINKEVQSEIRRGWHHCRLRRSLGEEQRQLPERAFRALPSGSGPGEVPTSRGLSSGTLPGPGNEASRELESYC
Assay: cAMP production in CHO-K1 cells expressing human GIPR (LANCE cAMP assay)
Format: cell-based
Conditions: for Emax: CHO-K1, read-out: % activation of cAMP (maximal stimulation)
Method: CHO—K1 cells expressing human GIPR were obtained from DiscoverX Corporation (Fremont, Calif.). The cells were cultured in Ham's F-12 nutrient media supplemented with 10% foetal bovine serum, 800 μg/ml geneticin, 300 μg/ml hydromycin, 2 mM L-glutamine, and Penicillin-streptomycin (100 units, 100 μg) at 37° C. in a 5% CO2 incubator. The cells were harvested at 90% confluence.
The cells were suspended in Ham's F-12 nutrient media to a concentration of 200,000 cells/ml. The cells were then plated in a 384 well plate at with […] of the suspension added per well. The cells were incubated overnight at 37° C. in a 5% CO2 incubator.
The activity of the compounds was determined by stimulating the CHO—K1 cells with the test compound, and measuring the levels of cAMP produced. The activity of the compounds was compared to the activity of native GIP, as GIP stimulates cAMP production. 6 μl of the test compound in stimulation buffer (990 ml Hank's Balanced Salt solution (HBSS) (1×) (Invitrogen Corp #14025-092), 10 ml Hepes buffer solution (1 mol·L) (Invitrogen Corp 15630-080), 1 g BSA (final 0.1%), and 1 ml IBMX 250 mM stock prepared fresh in DMSO (Sigma-Aldrich 15879)) were added to cells, followed by 6 μl of Alexa Fluor® 647-anti cAMP antibody (Perkin Elmer) in stimulation buffer. […] The well plate was centrifuged for 3 min at 300 rpm, and incubated at room temperature for 45 minutes. 12 μl of detection mixture (biotin cAMP and EUW8044 labeled streptavidin (Eu-SA) in cAMP Detection Buffer (Perkin Elmer)) was added and incubated for 60 min at room temperature.
The levels of cAMP produced were measured according to the detailed protocol outlined in the Perkin Elmer LANCE cAMP Assay Perkin Elmer Lance cAMP Kit manual. The activity of the compounds was compared to the activity of native GIP.
The plates are read on a TRF detection instrument, EnVision® (Perkin Elmer) (excitation at 340 nm and emission at 665 nm). The values of the cAMP signal are obtained from the standard cAMP curve and used to determine the amount of maximal stimulation, and EC50 for stimulating the cAMP signal.

SMILES: CC[C@H](C)[C@H](NC(=O)[C@H](CO)NC(=O)[C@H](Cc1ccc(O)cc1)NC(=O)[C@H](CC(=O)O)NC(=O)[C@H](CO)NC(=O)[C@@H](NC(=O)[C@H](Cc1ccccc1)NC(=O)[C@@H](NC(=O)CNC(=O)[C@H](CCC(=O)O)NC(=O)[C@H](C)NC(=O)[C@@H](Cc1ccccc1F)NC(C)=O)[C@@H](C)O)[C@@H](C)CC)C(=O)N[C@@H](C)C(=O)N[C@@H](CCSC)C(=O)N[C@@H](CC(=O)O)C(=O)N[C@@H](CCCCN)C(=O)N[C@H](C(=O)N[C@@H](Cc1c[nH]cn1)C(=O)N[C@@H](CCC(N)=O)C(=O)N[C@@H](CCC(N)=O)C(=O)N[C@@H](CC(=O)O)C(=O)N[C@@H](Cc1ccccc1)C(=O)N[C@H](C(=O)N[C@@H](CC(N)=O)C(=O)N[C@@H](Cc1c[nH]c2ccccc12)C(=O)N[C@@H](CC(C)C)C(=O)N[C@@H](CC(C)C)C(=O)N[C@@H](C)C(=O)N[C@@H](CCC(N)=O)C(=O)N[C@@H](CCCCN)C(N)=O)C(C)C)[C@@H](C)CC [Example 15]
- EC50: 0.0075 nM
- Emax: 99.8%

SMILES: CC[C@H](C)[C@H](NC(=O)[C@H](CO)NC(=O)[C@H](Cc1ccc(O)cc1)NC(=O)[C@H](CC(=O)O)NC(=O)[C@H](CO)NC(=O)[C@@H](NC(=O)[C@H](Cc1ccccc1)NC(=O)[C@@H](NC(=O)CNC(=O)[C@H](CCC(=O)O)NC(=O)[C@H](C)NC(=O)[C@@H](Cc1cccc(F)c1)NC(C)=O)[C@@H](C)O)[C@@H](C)CC)C(=O)N[C@@H](C)C(=O)N[C@@H](CCSC)C(=O)N[C@@H](CC(=O)O)C(=O)N[C@@H](CCCCN)C(=O)N[C@H](C(=O)N[C@@H](Cc1c[nH]cn1)C(=O)N[C@@H](CCC(N)=O)C(=O)N[C@@H](CCC(N)=O)C(=O)N[C@@H](CC(=O)O)C(=O)N[C@@H](Cc1ccccc1)C(=O)N[C@H](C(=O)N[C@@H](CC(N)=O)C(=O)N[C@@H](Cc1c[nH]c2ccccc12)C(=O)N[C@@H](CC(C)C)C(=O)N[C@@H](CC(C)C)C(=O)N[C@@H](C)C(=O)N[C@@H](CCC(N)=O)C(=O)N[C@@H](CCCCN)C(N)=O)C(C)C)[C@@H](C)CC [Example 16]
- EC50: 0.058 nM
- Emax: 98%

SMILES: CC[C@H](C)[C@H](NC(=O)[C@H](CO)NC(=O)[C@H](Cc1ccc(O)cc1)NC(=O)[C@H](CC(=O)O)NC(=O)[C@H](CO)NC(=O)[C@@H](NC(=O)[C@H](Cc1ccccc1)NC(=O)[C@@H](NC(=O)CNC(=O)[C@H](CCC(=O)O)NC(=O)[C@H](C)NC(=O)[C@@H](Cc1cc(F)cc(F)c1)NC(C)=O)[C@@H](C)O)[C@@H](C)CC)C(=O)N[C@@H](C)C(=O)N[C@@H](CCSC)C(=O)N[C@@H](CC(=O)O)C(=O)N[C@@H](CCCCN)C(=O)N[C@H](C(=O)N[C@@H](Cc1c[nH]cn1)C(=O)N[C@@H](CCC(N)=O)C(=O)N[C@@H](CCC(N)=O)C(=O)N[C@@H](CC(=O)O)C(=O)N[C@@H](Cc1ccccc1)C(=O)N[C@H](C(=O)N[C@@H](CC(N)=O)C(=O)N[C@@H](Cc1c[nH]c2ccccc12)C(=O)N[C@@H](CC(C)C)C(=O)N[C@@H](CC(C)C)C(=O)N[C@@H](C)C(=O)N[C@@H](CCC(N)=O)C(=O)N[C@@H](CCCCN)C(N)=O)C(C)C)[C@@H](C)CC [Example 17]
- EC50: 0.003 nM
- Emax: 99.6%

SMILES: CC[C@H](C)[C@H](NC(=O)[C@H](CO)NC(=O)[C@H](Cc1ccc(O)cc1)NC(=O)[C@H](CC(=O)O)NC(=O)[C@H](CO)NC(=O)[C@@H](NC(=O)[C@H](Cc1ccccc1)NC(=O)[C@@H](NC(=O)CNC(=O)[C@H](CCC(=O)O)NC(=O)[C@H](C)NC(=O)[C@@H](Cc1cc(F)c(F)c(F)c1)NC(C)=O)[C@@H](C)O)[C@@H](C)CC)C(=O)N[C@@H](C)C(=O)N[C@@H](CCSC)C(=O)N[C@@H](CC(=O)O)C(=O)N[C@@H](CCCCN)C(=O)N[C@H](C(=O)N[C@@H](Cc1c[nH]cn1)C(=O)N[C@@H](CCC(N)=O)C(=O)N[C@@H](CCC(N)=O)C(=O)N[C@@H](CC(=O)O)C(=O)N[C@@H](Cc1ccccc1)C(=O)N[C@H](C(=O)N[C@@H](CC(N)=O)C(=O)N[C@@H](Cc1c[nH]c2ccccc12)C(=O)N[C@@H](CC(C)C)C(=O)N[C@@H](CC(C)C)C(=O)N[C@@H](C)C(=O)N[C@@H](CCC(N)=O)C(=O)N[C@@H](CCCCN)C(N)=O)C(C)C)[C@@H](C)CC [Example 18]
- EC50: 0.104 nM
- Emax: 100%
